From US9187524B2, “Broad spectrum antibiotic arylomycin analogs” (The Scripps Research Institute, priority 2010, dated 2015)
In brackets after ≈: the same amount, converted by molar mass. Where two headings read alike, the source gives them in different places.

Key:
[1] = test system: S. pyogenes; test: microbe, parasite or virus in culture; format: cell-based, Streptococcus pyogenes
[2] = test system: lepB(P84L) E. coli MG1655; test: microbe, parasite or virus in culture; format: cell-based, Escherichia coli; settings: for MIC: Escherichia coli, MG1655, read-out: MIC, E. coli P84L
[3] = test system: C. glutamicum; test: microbe, parasite or virus in culture; format: cell-based, Corynebacterium glutamicum; settings: Corynebacterium glutamicum; Table 4; read-out: MIC, C. glutamicum
[4] = test system: R. opacus; test: microbe, parasite or virus in culture; format: cell-based; settings: Rhodococcus opacus; Table 4; read-out: MIC, R. opacus
[5] = test system: S. pneumoniae; test: microbe, parasite or virus in culture; format: cell-based, Streptococcus pneumoniae
[6] = test system: B. brevis; test: microbe, parasite or virus in culture; format: cell-based, Brevibacillus brevis; settings: for MIC: Brevibacillus brevis, Table 4, read-out: MIC, B. brevis
[7] = test system: L. lactis; test: microbe, parasite or virus in culture; format: cell-based, Lactococcus lactis; settings: Lactococcus lactis, Table 4
[8] = test system: S. agalactiae; test: microbe, parasite or virus in culture; format: cell-based, Streptococcus agalactiae
[9] = test system: wild type E. coli MG1655; test: microbe, parasite or virus in culture; format: cell-based, Escherichia coli; settings: for MIC: Escherichia coli, MG1655, read-out: MIC, E. coli
[10] = test system: C. efficiens; test: microbe, parasite or virus in culture; format: cell-based; settings: Corynebacterium efficiens, Table 4; read-out: MIC, C. efficiens
[11] = test system: R. equi; test: microbe, parasite or virus in culture; format: cell-based; settings: Rhodococcus (subgen. Prescottella) equi; Table 4
[12] = test system: lepB(P84L) P. aeruginosa PAO1; test: microbe, parasite or virus in culture; format: cell-based, Pseudomonas aeruginosa; settings: for MIC: Pseudomonas aeruginosa, PAO1, read-out: MIC, P. aeruginosa P84L
[13] = test system: lepB(P29S) S. aureus 8325; test: microbe, parasite or virus in culture; format: cell-based, Staphylococcus aureus; settings: for MIC: Staphylococcus aureus, read-out: MIC, S. aureus P29S
[14] = test system: wild type S. epidermidis RP62A; test: microbe, parasite or virus in culture; format: cell-based, Staphylococcus epidermidis; settings: for MIC: Staphylococcus epidermidis, read-out: MIC, S. epidermidis
[15] = test system: wild type P. aeruginosa PAO1; test: microbe, parasite or virus in culture; format: cell-based, Pseudomonas aeruginosa
[16] = test system: wild type S. aureus 8325; test: microbe, parasite or virus in culture; format: cell-based, Staphylococcus aureus
[17] = test system: spsB(S29P) S. epidermidis RP62A; test: microbe, parasite or virus in culture; format: cell-based, Staphylococcus epidermidis
[18] = test system: S. epidermidis ATCC 35984; test: MIC; format: cell-based; settings: Table 1

| Compound | MIC, Sensitive Ec [2] [mg/L] | MIC, Resistant Pa [15] [mg/L] | MIC, Resistant Sa [16] [mg/L] | MIC, Resistant Ec [9] [mg/L] | MIC, Sensitive Pa [12] [mg/L] | MIC, Sensitive Sa [13] [mg/L] | MIC, Sensitive Se [14] [mg/L] | MIC, Resistant Se [17] [mg/L] | fold loss of activity against sensitized P. aeruginosa relative to arylomycin C16 [12] | fold loss of activity against sensitized S. aureus relative to arylomycin C16 [13] | other results |
| --- | --- | --- | --- | --- | --- | --- | --- | --- | --- | --- | --- |
| CCCCCCCCCCCCCCCC(=O)N(C)[C@H](CO)C(=O)N[C@H](C)C(=O)NCC(=O)N(C)[C@@H]1C(=O)NC(C)C(=O)N[C@H](C(=O)O)Cc2cc(c(O)c([N+](=O)[O-])c2)-c2cc1ccc2O (stereo partly shown) [Arylomycin B-C16] |  |  |  |  |  |  |  |  |  |  | MIC ([1]; Streptococcus pyogenes, Table 4, read-out: MIC, S. pyogenes): 4 mg/L (≈ 4.32 µM); MIC, S. pyogenes ([1]; Table 14): 4 mg/L (≈ 4.32 µM); MIC [2]: 2 mg/L (≈ 2.16 µM); MIC [3]: 2 mg/L (≈ 2.16 µM); MIC [4]: 4 mg/L (≈ 4.32 µM); MIC ([5]; Streptococcus pneumoniae, Table 4, read-out: MIC, S. pneumoniae): 16 mg/L (≈ 17.3 µM); MIC, S. pneumoniae ([5]; Table 14): 16 mg/L (≈ 17.3 µM); MIC [6]: > 64 mg/L; activity against B. brevis ([6]; MHBII broth and nutrient broth): no activity; MIC [7]: 32 mg/L (≈ 34.6 µM); fold more activity against Streptococcus agalactiae than arylomycin C16 [8]: greater than 16 fold; MIC ([8]; Streptococcus agalactiae, Table 4, read-out: MIC, S. agalactiae): 8 mg/L (≈ 8.64 µM); MIC, S. agalactiae ([8]; Table 14): 8 mg/L (≈ 8.64 µM); MIC [9]: > 64 mg/L; MIC [10]: 16 mg/L (≈ 17.3 µM); MIC [11]: 32 mg/L (≈ 34.6 µM); MIC [12]: 4 mg/L (≈ 4.32 µM); MIC [13]: 8 mg/L (≈ 8.64 µM); MIC [14]: 0.13 mg/L (≈ 0.14 µM) |
| CCCCCCCCCCCCCCCC(=O)N[C@H](CO)C(=O)N[C@H](C)C(=O)NCC(=O)N(C)[C@@H]1C(=O)N[C@@H](C)C(=O)N[C@H](C(=O)O)Cc2ccc(O)c(c2)-c2cc1ccc2O [Compound 17] | 4 (≈ 4.61 µM) | >64 | >64 | >64 | >64 | 16 (≈ 18.5 µM) | 1 (≈ 1.15 µM) | 32 (≈ 36.9 µM) |  |  |  |
| CCCCCCCCCCCCCCCC(=O)N(C)[C@H](CO)C(=O)N(C)[C@H](C)C(=O)NCC(=O)N(C)[C@@H]1C(=O)N[C@@H](C)C(=O)N[C@H](C(=O)O)Cc2ccc(O)c(c2)-c2cc1ccc2O [Compound 18] | >64 | >64 | >64 | >64 | >64 | >64 | >64 | >64 |  |  |  |
| CCCCCCCCCCCCCCCC(=O)N1CC(O)CC1C(=O)NC(C)C(=O)NCC(=O)N(C)C1C(=O)NC(C)C(=O)NC(C(=O)O)Cc2ccc(O)c(c2)-c2cc1ccc2O (stereo not shown) [Compound 19] | >64 | >64 | >64 | >64 | >64 | 4 (≈ 4.48 µM) | 4 (≈ 4.48 µM) | 8 (≈ 8.96 µM) |  |  |  |
| CCCCCCCCCCCCCCCC(=O)N(C)C(CO)CCC(=O)NC(C)C(=O)NCC(=O)N(C)C1C(=O)NC(C)C(=O)NC(C(=O)O)Cc2ccc(O)c(c2)-c2cc1ccc2O (stereo not shown) [Compound 24] | >64 | >64 | 16 (≈ 17.6 µM) | >64 | >64 | 4 (≈ 4.4 µM) | 8 (≈ 8.8 µM) | 16 (≈ 17.6 µM) |  |  |  |
| CCCCCCCCCCCCCCCC(=O)N(C)[C@H](CO)C(=O)N[C@H](C)C(=O)NCC(=O)N(C)[C@@H]1C(=O)NCC(=O)N[C@H](C(=O)O)Cc2ccc(O)c(c2)-c2cc1ccc2O [Compound 26] |  |  |  |  |  |  |  |  | > 16 fold | > 16 fold | fold loss of activity against sensitized E. coli relative to arylomycin C16 [2]: 32 fold; fold loss of activity against S. epidermidis relative to arylomycin C16 [14]: 32 fold |
| CCCCCCCCCCCCCCCC(=O)N(C)C(CO)C(=O)NC(C)C(=O)NCC(=O)N(C)C1C(=O)NC(CCCC)C(=O)NC(C(=O)O)Cc2ccc(O)c(c2)-c2cc1ccc2O (stereo not shown) [Compound 29] |  |  |  |  |  |  |  |  |  | 32 fold |  |
| CCCCCCCCCCCCCCCC(=O)N(C)C(CO)C(=O)NC(C)C(=O)NCC(=O)N(C)C1C(=O)NC(CCCCC)C(=O)NC(C(=O)O)Cc2ccc(O)c(c2)-c2cc1ccc2O (stereo not shown) [Compound 30] |  |  |  |  |  |  |  |  |  | 32 fold |  |
| CCCCCCCCCCCCCCCC(=O)N(C)C(CO)C(=O)NC(C)C(=O)NCC(=O)N(C)C1C(=O)NC(CC(F)(F)F)C(=O)NC(C(=O)O)Cc2ccc(O)c(c2)-c2cc1ccc2O (stereo not shown) [Compound 33] |  |  |  |  |  |  |  |  | at least 16 fold | at least 16 fold | fold loss of activity against sensitized E. coli relative to arylomycin C16 [2]: 8 fold; fold loss of activity against S. epidermidis relative to arylomycin C16 [14]: 32 fold |
| CCCCCCCCCCCCCCCC(=O)N(C)C(CO)C(=O)NC(C)C(=O)NCC(=O)N(C)C1C(=O)NC(C(C)C)C(=O)NC(C(=O)O)Cc2ccc(O)c(c2)-c2cc1ccc2O (stereo not shown) [Compound 34] |  |  |  |  |  |  |  |  | 4 fold |  |  |
| CCCCCCCCCCCCCCCC(=O)N(C)C(CO)C(=O)NC(C)C(=O)NCC(=O)N(C)C1C(=O)NC(CC(C)C)C(=O)NC(C(=O)O)Cc2ccc(O)c(c2)-c2cc1ccc2O (stereo not shown) [Compound 35] |  |  |  |  |  |  |  |  | > 16 fold |  |  |
| CCCCCCCCCCCCCCCC(=O)N(C)[C@H](CO)C(=O)N[C@H](C)C(=O)NCC(=O)N(C)[C@@H]1C(=O)N[C@@H](C)C(=O)N[C@H](C(=O)O)Cc2cc(N)c(O)c(c2)-c2cc1ccc2O [Compound 36] |  |  |  |  |  |  |  |  | 8 fold | 32 fold | fold loss of activity against sensitized E. coli relative to arylomycin C16 [2]: 8 fold; MIC [2]: 16 mg/L (≈ 17.9 µM); MIC [6]: > 64 mg/L; MIC [9]: > 64 mg/L; MIC [12]: 32 mg/L (≈ 35.7 µM); MIC [13]: 64 mg/L (≈ 71.4 µM); MIC [14]: 8 mg/L (≈ 8.93 µM); fold loss of activity against S. epidermidis relative to arylomycin C16 ([14]; sensitive (wild type) strain): 32 fold |
| Arylomycin A2 [reference compound] |  |  |  |  |  |  |  |  |  |  | MIC, S. aureus 8325 ([16]; Table 1): >128 µM; MIC, E. coli MG1655 ([9]; Table 1): >128 µM; MIC, S. epidermidis ATCC 35984 [18]: 1 µM |
